From patent publication US7994158B2, “Method for inhibiting tumor growth with dehydrosulphurenic acid extracted from Antrodia cinnamomea” (priority 2008, dated 2011)
Converted amounts (≈) assume the structure as drawn.

Columns and labels:
[1] = system: human leukemic cell line U937; assay: Mitochondrial transmembrane potential (DiOC6(3), flow cytometry); assay type: cell-based; conditions: 16 hours
From the text: Mitochondrial pathway is one of the pathways of apoptosis induction. In cells undergoing apoptosis, mitochondria were stimulated to regulate the Bcl-2 family of proteins, which made the inner and outer mitochondrial membrane unstable. Apoptigenic factors were further released to induce apoptosis. The apoptotic mechanism of dehydrosulphurenic acid in tumor cells was studied in this experiment by measuring the mitochondrial transmembrane potential.
Dehydrosulphurenic acid in the concentration of 5 μg/ml were used to treat human leukemic cell line U937 for 16 hours; while U937 cells treated with 4 μM anti-cancer drug Camptothecin for 16 hours were served as positive control, and cells without treatment were served as negative control. These cells were washed with PBS and incubated with 40 nM 3,3′-dihexyloxacarbocyanine (DiOC6(3), Molecular Probes, Eugene, Oreg.) in the dark at 37° C. for 15 min, and were detected by flowcytometry. Excitation and emission wavelength settings of 488 nm and 530 nm were used to detect the density of green fluorescence to further estimate mitochondrial membrane potential.

[2] = system: apoptosis- and mitotic catastrophe-related proteins in U937 cells; assay: Western blot analysis of apoptosis-related proteins; assay type: cell-based, human; conditions: 5 μg/ml; 0.5-16 hours
From the text: Death receptor pathway is a signal transduction pathway of apoptosis induction. Some of the death factors, such as TNF-α and so on, bind with death receptor (DR) such as TNF family in the membrane to send death signal to cells and induce a series of apoptotic events. A family of aspartic acid-specific proteases, known as caspases, includes caspase-3 and caspase-8 would be activated during apoptotic process. Activated caspase can cleave downstream protein such as Poly(ADP-ribose) polymerase (PARP) to proceed through apoptosis. This experiment investigated the implication of the death receptor pathway in dehydrosulphurenic acid-induced apoptosis through Western blot analysis.
Dehydrosulphurenic acid in the concentration of 5 μg/ml were used to treat human leukemic cell line U937 for 0.5, 1, 2, 4, and 16 hours; while U937 cells treated with 4 μM anti-cancer drug Camptothecin for 16 hours were served as positive control, and cells without treatment were served as negative control. All the proteins from the cells were extracted with bicinchoninic acid (BCA) assay kit (Pierce, Rockford, Ill.). Equal amounts ([…]) of the protein were aliquoted and separated by electrophoresis on a 10% SDS-PAGE gel at a constant current of 20 mA and 70-100 volts. The proteins on the gel were transferred onto PVDF membranes, blocked with 5% non-fat milk, and incubated respectively with human-specific antibodies including: anti-Bcl-2, anti-Bax, anti-caspase 3, anti-caspase 8, anti-Cyclin B1, anti-p-Chk2 and anti-Actin (all were purchased from Transduction Laboratories, Lexington, Ky., USA) for 3 hours at room temperature. Secondary antibody horseradish peroxidase (purchased from Transduction Laboratories, Lexington, Ky., USA) was then added and the signals were detected under an Enhanced chemiluminescence system (ECS, Amersham Pharmacia, Piscataway, N.J.).

[3] = system: human pancreatic cancer cell line BxPc-3; assay: In vitro survival assay (MTT) for anti-pancreatic cancer effects; assay type: cell-based
Experimental: The NCI anti-cancer drug screen model was also adopted to test the anti-cancer effect. Dehydrosulphurenic acid was added into the culture media of human pancreatic cancer cell line BxPc-3 to test for tumor cell survival. This survival assay was carried out with the abovementioned MTT assay. American Type Culture Collection (ATCC) purchased BxPc-3 cell line is from pancreatic cancer cells, which was originated from the epithelium of human pancreatic adenocarcinomas.
(§1) The human pancreatic cancer cell line BxPc-3 was cultivated in DMEM media containing 100 IU/ml penicillin (Invitrogen, Carlsbad, Calif.), 100 IU/ml Streptomycin (Invitrogen, Carlsbad, Calif.), 2 mM glutamin (Invitrogen, Carlsbad, Calif.), 100 IU/ml penicillin (Invitrogen, Carlsbad, Calif.) and 10% fetal calf serum (Atlanta Biologicals, Norcross, Ga.). The proliferated cells were treated with dehydrosulphurenic acid in the concentration of 0 (the control group), 5 and 10 μg/ml (the experimental group), respectively. The cells were incubated at 37° C. in a 5% CO2 incubator for 24-72 hours. MTT was added in a concentration of 500 μg/ml into each well in dark and incubated for 4 hours, followed by the addition of 500 μl of isopropanol to stop the reaction. The plates were read on an ELISA reader at wavelength of 570 nm to determine the survival rates. The results were reported as the average±(plus/minus) SEM (Standard Error in the Mean). For statistical analysis, the t-test were used to compare the difference between each experiment result. P<0.05 was considered statistically significant.

[4] = system: human pancreatic cancer cell line BxPc-3; assay: Cell cycle analysis by flow cytometer (propidium iodide); assay type: cell-based; conditions: 5 and 10 μg/ml; 2 to 3 days
Experimental: (§2) Flow cytometer was used to analyze the cell proliferation effect of dehydrosulphurenic acid toward human leukemic cell line U937 and human pancreatic cancer cell line BxPc-3.
(§3) Dehydrosulphurenic acid in the concentration of 1.25, 2.5, 5, and 10 μg/ml were used to treat human leukemic cell line U937 and the concentration of 5 and 10 μg/ml were used to treat human pancreatic cancer cell line BxPc-3; cells without addition of dehydrosulphurenic acid were served as the control group. The treated cells were fixed at […] with 70% ethanol for 1 hour and stained for 30 min with propidium iodide solution (propidium iodide, 0.5 mg/ml; RNAse, 0.1 mg/ml) contained in a CycleTEST PLUS DNA reagent kit (Becton Dickinson, Lincoln Park, N.J.). DNA content measurement on the collected 10^4 cells was performed on the FACS Calibur flow cytometer (Becton Dickinson, Calif., USA), and the cell cycle changes were analyzed using a ModFit software (Becton Dickinson).

[5] = system: human leukemic cell line U937; assay: as above; assay type: cell-based
Experimental: as §2, §3

[6] = system: human monoblastoid leukemic cell line U937; assay: In vitro survival assay (MTT) for anti-leukemia effects; assay type: cell-based
Experimental: The NCI anti-cancer drug screen model was adopted to test the anti-cancer effect of dehydrosulphurenic acid. Dehydrosulphurenic acid was added into the culture media of human monoblastoid leukemic cell line U937 to test for tumor cell survival. This survival assay was carried out with the widely known MTT assay. American Type Culture Collection (ATCC) purchased U937 cell line is from lymphoma cells, which belongs to one of human leukemic cell lines and was classified into monoblasts during hematopoietic differentiation.
MTT assay is commonly used to determine cell proliferation, percent of viable cells, and cytotoxicity. MTT (3-[4,5-dimethylthiazol-2-yl]2,5-diphenyltetrazolium bromide) is a yellow dye, which can be absorbed by the living cells and be reduced to purplish blue formazan crystals by succinate tetrazolium reductase in mitochondria. Formazan formation can therefore be used to assess and determine the survival rate of cells.
as §1, with “human leukemic” for “human pancreatic cancer”, “line U937” for “line BxPc-3”, “in RPMI” for “in DMEM”, “containing” for “containing 100 IU/ml penicillin (Invitrogen, Carlsbad, Calif.), 100 IU/ml Streptomycin (Invitrogen, Carlsbad, Calif.), 2 mM glutamin (Invitrogen, Carlsbad, Calif.), 100 IU/ml penicillin (Invitrogen, Carlsbad, Calif.) and 10%”, “serum for 24 hours and maintained in exponential growth condition.” for “serum (Atlanta Biologicals, Norcross, Ga.).”, “group), 1.25, 2.5, 5,” for “group), 5”

[7] = system: human pancreatic cancer cell line BxPc-3; assay: Nuclear DNA changes, DNA ladder by DNA electrophoresis; assay type: cell-based; conditions: 5 μg/ml; 24, 48, and 72 hours; data not shown
Experimental: (§4) Besides the abovementioned morphological changes, biochemical changes of the dying cell during apoptosis include chromatin condensation, cell shrinkage and breaking into apoptotic bodies, internucleosomal DNA fragmentation into a multiple DNA ladder during the late stage of apoptosis (can be shown in DNA electrophoresis) and so on. To further define the effects of dehydrosulphurenic acid on U937 and BxPc-3 during apoptotic stages, DNA ladders were determined using DNA electrophoresis at the present experiment.
(§5) Dehydrosulphurenic acid in the concentration of 5 μg/ml were used to treat human leukemic cell line U937 and human pancreatic cancer cell line BxPc-3 for 24, 48, and 72 hours; while U937 cells treated with 4 μM anti-cancer drug Camptothecin for 24 hours were served as positive control. Then these cells were lyzed with 0.5 ml of lysis buffer (5 mM Tris-borate (TBE), pH8.0; 0.25 ml Nonidet P-40; 1 mM EDTA; 20 μg/ml RNase (Sigma, St. Louis, Mo.)) at 37° C. for 1 hour, followed by treating with 300 μg/ml proteinase K for 1 hour. Total DNAs were extracted and analyzed by 1.5% agarose gel electrophoresis in TBE buffer (5 mM TBE buffer containing 1 μM EDTA, pH 8.0).

[8] = system: human leukemic cell line U937; assay: as above; assay type: cell-based; conditions: 5 μg/ml; 24, 48, and 72 hours
Experimental: as §4, §5

[9] = system: human pancreatic cancer cell line BxPc-3; assay: Cell morphology analysis (Liu's staining); assay type: cell-based; conditions: 10 μg/ml
Experimental: (§6) The human leukemic cell line U937 and the human pancreatic cancer cell line BxPc-3 were treated respectively with dehydrosulphurenic acid for 24-72 h and stained with Liu's staining solution. The morphological changes of cells with (the experimental group) or without dehydrosulphurenic acid treatment (the control group) were observed under inverted phase-contrast microscope and shown in FIG. 5 and FIG. 6.

[10] = system: human leukemic cell line U937; assay: Cell morphology analysis (Liu's staining); assay type: cell-based; conditions: treatment for 24-72 h
Experimental: as §6

[11] = concentration groups of 5 and 10 μg/ml, third day of experiment

**Q.** Which “decrease of mitochondrial transmembrane potential” value ([1]; 5 μg/ml) does the source give for `C=C(CC[C@@H](C(=O)O)C1C[C@H](O)[C@@]2(C)C3=CCC4C(C)(C)[C@@H](O)CC[C@]4(C)C3=CC[C@]12C)C(C)C` (stereo partly drawn) [dehydrosulphurenic acid, 24-methylenelanosta-7,9(11)-diene-3β,15α-diol-21-oic acid] here?
**A.** no significant decrease

**Q.** What about the Bax expression [2] of the same compound?
**A.** not changed

**Q.** What about the Bcl-2 expression [2] of the same compound?
**A.** slightly increased

**Q.** What about the “cleavage of PARP” value [2] of the same compound?
**A.** no cleavage

**Q.** And the “cyclin B1 expression” value [2]?
**A.** up-regulated

**Q.** And the “expression of caspase-3” value [2]?
**A.** not altered

**Q.** What about the “expression of caspase-8” value [2] of the same compound?
**A.** not altered

**Q.** And the “phosphorylation of Chk2” value [2]?
**A.** augmented

**Q.** What about the “growth inhibition of BxPc-3 cells” value ([3]; 5 and 10 μg/ml, 24-72 hours) of the same compound?
**A.** significantly inhibit the growth of BxPc-3 cells

**Q.** And the IC50 ([3]; Homo sapiens, BXPC-3, MTT, data not shown, read-out: IC50 toward BxPc-3 cells)?
**A.** ~5 µM

**Q.** What about the inhibitory rate [3, 11] of the same compound?
**A.** more than 60%

**Q.** What about the highest inhibitory rate ([3]; third day of experiment) of the same compound?
**A.** 82.5%

**Q.** What about the cell cycle arrest [4] of the same compound?
**A.** remarkable G0/G1 phase arrest

**Q.** And the “percentage of polyploidy cells” value [4]?
**A.** not changed

**Q.** What about the sub-G1 population [4] of the same compound?
**A.** increase of cell cycle arrest at sub-G1 population

**Q.** And the cell cycle arrest ([5]; 1.25-10 μg/ml, first day of experiment)?
**A.** remarkable G2/M phase arrest

**Q.** What about the sub-G1 population ([5]; higher concentration or second/third day of experiment) of the same compound?
**A.** accumulating at sub-G1 population

**Q.** And the “percentage of cells with polyploidy” value ([5]; with increasing concentration)?
**A.** accompanied by increasing concentration

**Q.** What about the inhibitory rate ([6]; 1.25, 2.5, 5, and 10 μg/ml (all groups), third day of experiment) of the same compound?
**A.** more than 60%

**Q.** And the “growth inhibition of U937 cells” value ([6]; 1.25, 2.5, 5, and 10 μg/ml, first day of experiment)?
**A.** inhibit the growth of U937 cells effectively

**Q.** What about the IC50 ([6]; Homo sapiens, U-937, MTT, data not shown, read-out: IC50 toward U937 cells) of the same compound?
**A.** ~2 µg/mL (≈ 4.13 µM)

**Q.** What about the inhibitory rate [6, 11] of the same compound?
**A.** more than 95%

**Q.** And the highest inhibitory rate ([6]; third day of experiment)?
**A.** 98.9%

**Q.** What about the DNA ladder [7] of the same compound?
**A.** no DNA ladder

**Q.** What about the DNA ladder [8] of the same compound?
**A.** obvious DNA ladders

**Q.** What about the morphological change ([9]; after 2 days of treatment) of the same compound?
**A.** typical cell apoptosis was observed

**Q.** And the morphological change ([9]; treatment for one day)?
**A.** balloon-shaped cells were presented

**Q.** What about the morphological change [10] of the same compound?
**A.** induced to undergo apoptosis and mitotic catastrophe

**Q.** With `CC[C@@]1(O)C(=O)OCc2c1cc1n(c2=O)Cc2cc3ccccc3nc2-1` [Camptothecin, reference compound] as the compound, how does the “decrease of mitochondrial transmembrane potential” value ([1]; 4 μM camptothecin (positive control)) read?
**A.** 37.1%
